Assays:
[1] = xn = mol fraction of the nth substance listed; conditions: 101.13 kPa, Liquid, x1 = 0.5; for mass density: Vibrating tube method; for electrical conductivity: Alternating current cell with electrodes; for viscosity: Concentric cylinders viscometry
[2] = refractive index (Na D-line) (dimensionless); xn = mol fraction of the nth substance listed; conditions: 101.13 kPa, Liquid, Standard Abbe refractometry, x1 = 0.5
[3] = 293.15 K, 101.13 kPa, Vibrating tube method

C[N+](C)(C)Cc1ccccc1.[Cl-] [trimethylbenzylammonium chloride] + OCCO
Conditions | electrical conductivity, [1] [S/m] | mass density, [1] [kg/m3] | refractive index, [2] | viscosity, [1] [mPa·s]
293 K | – | 1123.7 | 1.4806 | –
298 K | 0.539 | 1118 | 1.4763 | 137.3
303 K | 0.706 | 1111.2 | 1.4731 | 96.5
308 K | 0.843 | 1105.1 | 1.4695 | 54.6
313 K | 0.902 | 1098 | 1.4652 | 28.9
318 K | 0.965 | 1091 | 1.4611 | 20.7
323 K | 1.02 | 1085 | 1.4587 | 14.2

CCC(O)CO (stereo not given) [1,2-butanediol]
Conditions | mass density [kg/m3]
[3], Liquid | 1000

C[N+](C)(C)Cc1ccccc1.[Cl-] [trimethylbenzylammonium chloride] + OCC(O)CO
Conditions | electrical conductivity, [1] [S/m] | mass density, [1] [kg/m3] | refractive index, [2] | viscosity, [1] [mPa·s]
293 K | – | 1170.3 | 1.5653 | –
298 K | 0.0688 | 1167.2 | 1.5612 | 383.9
303 K | 0.115 | 1164.3 | 1.5587 | 159.6
308 K | 0.123 | 1161.4 | 1.556 | 79.8
313 K | 0.126 | 1158.4 | 1.5532 | 48.5
318 K | 0.123 | 1155 | 1.5503 | 29.7
323 K | 0.178 | 1152.4 | 1.5493 | 18.3

OCC(O)CO [glycerol]
Conditions | mass density [kg/m3]
[3], Liquid | 1238

OCCCCCCO [1,6-hexanediol]
Conditions | mass density [kg/m3]
[3], Liquid | 947

O=C([O-])[O-].[Na+].[Na+] [sodium carbonate]
Conditions | mass density [kg/m3]
[3], Crystal | 2516

OCCO [1,2-ethanediol]
Conditions | mass density [kg/m3]
[3], Liquid | 1105

C[N+](C)(C)Cc1ccccc1.[Cl-] [trimethylbenzylammonium chloride] + CCC(O)CO
Conditions | electrical conductivity, [1] [S/m] | mass density, [1] [kg/m3] | refractive index, [2] | viscosity, [1] [mPa·s]
293 K | – | 1104 | 1.4982 | –
298 K | 0.194 | 1093 | 1.4956 | 231.7
303 K | 0.312 | 1083 | 1.4921 | 128.5
308 K | 0.382 | 1073 | 1.4892 | 64.2
313 K | 0.437 | 1064 | 1.4851 | 34.5
318 K | 0.465 | 1057 | 1.4823 | 22.1
323 K | 0.532 | 1049 | 1.4781 | 17.9

C[N+](C)(C)Cc1ccccc1.[Cl-] [trimethylbenzylammonium chloride] + OCCCCCCO
Conditions | electrical conductivity, [1] [S/m] | mass density, [1] [kg/m3] | refractive index, [2] | viscosity, [1] [mPa·s]
293 K | – | 1142.3 | 1.5143 | –
298 K | 0.0842 | 1132.6 | 1.5107 | 298.3
303 K | 0.145 | 1126.2 | 1.5083 | 143.6
308 K | 0.17 | 1119.7 | 1.5052 | 72.9
313 K | 0.184 | 1113.4 | 1.5016 | 38.7
318 K | 0.195 | 1107.1 | 1.4987 | 23.5
323 K | 0.253 | 1100 | 1.4963 | 16.8

C[N+](C)(C)Cc1ccccc1.[Cl-] [trimethylbenzylammonium chloride]
Conditions | mass density [kg/m3]
[3], Crystal | 1061

— the NIST ThermoML archive (doi:10.1021/acs.jced.9b00134)
